Source: patent US20230147855A1, “METHODS OF GENERATING PLURIPOTENT STEM CELL-DERIVED VASCULAR SMOOTH MUSCLE CELLS, USES, AND COMPOSITION RELATED THERETO” (EMORY UNIVERSITY, priority 2020, published 2023)

Columns and labels:
[1] = system: hiPSC-VSMCs; experiment: Contractility of hiPSC-VSMCs in response to vasoactive agents; type: cell-based, human; settings: hiPSC-VSMCs treated with agent; FIG. 6B
From the text: (§1) A significant difference also between cells treated with carbachol and potassium chloride was observed (FIG. 6B).

[2] = system: hiPSC-VSMCs; experiment: Intracellular calcium flux (Fluo4 fluorescence) in hiPSC-VSMCs; type: cell-based, human; settings: FIG. 6A
From the text: as §1

SMILES | contractility [1] | Fluo4 fluorescence (intracellular calcium flux) [2]
[Cl-].[K+] [KCl, potassium chloride] | significantly increased contractility | –
C[N+](C)(C)CCOC(N)=O [carbachol] | significantly increased contractility | dramatic increase
